Data as given in patent US20220323406A1, “METHODS AND COMPOSITIONS FOR DIFFERENTIATING STEM CELLS” (Massachusetts Institute of Technology, priority 2019, published 2022).
Where a name gives a salt, the structure may show the parent alone.

What was measured:
ENR+CD organoids = assay: Primary screen: ATP (CellTiter-Glo 3D, CTG) cell number/viability, 2.5-D 384-well ENR+CD organoids; details: primary screen; for Z.CTG: standard z score;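 for all read-outs here: compounds given at plating and again on day 3 over a 6-day differentiation from ENR+CV stem-cell-enriched precursors, ATP measured on day 6, plate median as control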
[1] = test system: ENR+CD organoids (ISC to Paneth cell differentiation); assay: Primary screen: CCh-stimulated lysozyme secretion LYZ.S, 2.5-D 384-well ENR+CD organoid differentiation; format: cell-based, mouse; details: primary screen
Text: (§1) High-throughput screening.

[2] = test system: ENR+CD organoids (ISC to Paneth cell differentiation); assay: Primary screen: basal (non-stimulated) lysozyme secretion LYZ.NS, 2.5-D 384-well ENR+CD organoid differentiation; format: cell-based, mouse; details: primary screen; for Z.LYZ.NS: standard z score
Text: as §1

| SMILES | Dose.FC.CTG (ENR+CD organoids; dose 0.08 uM) | Dose.FC.CTG (ENR+CD organoids; dose 0.40 uM) | Dose.FC.CTG (ENR+CD organoids; dose 2.00 uM) | Dose.FC.CTG (ENR+CD organoids; dose 10.00 uM) | Dose.FC.LYZ.S ([1]; dose 0.08 uM) | Dose.FC.LYZ.S ([1]; dose 0.40 uM) | Dose.FC.LYZ.S ([1]; dose 2.00 uM) | Dose.FC.LYZ.S ([1]; dose 10.00 uM) | Dose.FC.LYZ.NS ([2]; dose 0.08 uM) | Dose.FC.LYZ.NS ([2]; dose 0.40 uM) | Dose.FC.LYZ.NS ([2]; dose 2.00 uM) | Dose.FC.LYZ.NS ([2]; dose 10.00 uM) | Z.LYZ.NS ([2]; dose 0.08 uM) | Z.LYZ.NS ([2]; dose 0.40 uM) | Z.LYZ.NS ([2]; dose 2.00 uM) | Z.LYZ.NS ([2]; dose 10.00 uM) | Z.CTG (ENR+CD organoids; dose 0.08 uM) | Z.CTG (ENR+CD organoids; dose 0.40 uM) | Z.CTG (ENR+CD organoids; dose 2.00 uM) | Z.CTG (ENR+CD organoids; dose 10.00 uM) |
| --- | --- | --- | --- | --- | --- | --- | --- | --- | --- | --- | --- | --- | --- | --- | --- | --- | --- | --- | --- | --- |
| COc1cc2nc(N3CCN(C(=O)C4COc5ccccc5O4)CC3)nc(N)c2cc1OC (centres unmarked) [Doxazosin Mesylate] | 0.072 log2 fold change | −0.015 log2 fold change | 0.146 log2 fold change | 0.075 log2 fold change | 0.093 log2 fold change | 0.084 log2 fold change | 0.030 log2 fold change | 0.015 log2 fold change | 0.073 log2 fold change | 0.044 log2 fold change | 0.047 log2 fold change | 0.039 log2 fold change | 0.633 | 0.387 | 0.413 | 0.340 |  |  |  |  |
| C[C@]12C=CC(=O)N[C@@H]1CC[C@@H]1[C@@H]2CC[C@]2(C)[C@@H](C(=O)Nc3cc(C(F)(F)F)ccc3C(F)(F)F)CC[C@@H]12 [Dutasteride] | 0.057 log2 fold change | −0.266 log2 fold change | −0.098 log2 fold change | −0.057 log2 fold change | 0.001 log2 fold change | −0.054 log2 fold change | −0.074 log2 fold change | −0.151 log2 fold change | 0.065 log2 fold change | 0.006 log2 fold change | −0.105 log2 fold change | −0.092 log2 fold change | 0.568 | 0.052 | −0.915 | −0.799 |  |  |  |  |
| O=C(N/N=C/c1ccc(O)c(O)c1)c1cc2ccccc2cc1O [Dynasore] | −0.248 log2 fold change | −0.253 log2 fold change | −0.152 log2 fold change | −0.011 log2 fold change | 0.078 log2 fold change | 0.122 log2 fold change | −0.024 log2 fold change | 0.041 log2 fold change | 0.049 log2 fold change | −0.020 log2 fold change | 0.036 log2 fold change | 0.048 log2 fold change | 0.431 | −0.176 | 0.314 | 0.414 |  |  |  |  |
| CCn1c2ccccc2c2cc(Nc3ccnc(NCCCN4CCOCC4)n3)ccc21 [EHop-016] | 0.081 log2 fold change | 0.062 log2 fold change | 0.088 log2 fold change | −0.757 log2 fold change | 0.091 log2 fold change | 0.012 log2 fold change | −0.011 log2 fold change | −0.299 log2 fold change | 0.177 log2 fold change | 0.035 log2 fold change | 0.029 log2 fold change | −0.203 log2 fold change | 1.537 | 0.302 | 0.252 | −1.769 | 0.193 | 0.147 | 0.211 | −1.808 |
| CCN(c1cc(-c2ccc(CN3CCOCC3)cc2)cc(C(=O)NCc2c(C)cc(C)[nH]c2=O)c1C)C1CCOCC1 [EPZ-6438] | 0.045 log2 fold change | 0.075 log2 fold change | −0.068 log2 fold change | 0.336 log2 fold change | 0.003 log2 fold change | −0.023 log2 fold change | −0.011 log2 fold change | 0.046 log2 fold change | 0.012 log2 fold change | −0.023 log2 fold change | 0.015 log2 fold change | 0.062 log2 fold change | 0.108 | −0.203 | 0.130 | 0.538 |  |  |  |  |
| COc1cccc(C=NCCN=Cc2cccc(OC)c2[O-])c1[O-].[Cl-].[Mn+3] [EUK 134] | −0.015 log2 fold change | −0.162 log2 fold change | 0.091 log2 fold change | −0.024 log2 fold change | 0.025 log2 fold change | 0.057 log2 fold change | −0.034 log2 fold change | −0.132 log2 fold change | 0.068 log2 fold change | 0.003 log2 fold change | 0.028 log2 fold change | −0.085 log2 fold change | 0.594 | 0.026 | 0.247 | −0.741 | −0.035 | −0.387 | 0.217 | −0.057 |
| NC(=O)C1CCCc2c1[nH]c1ccc(Cl)cc21 (centres unmarked) [EX 527 (Selisistat)] | 0.240 log2 fold change | 0.174 log2 fold change | 0.341 log2 fold change | 0.320 log2 fold change | 0.062 log2 fold change | 0.047 log2 fold change | −0.051 log2 fold change | −0.011 log2 fold change | 0.100 log2 fold change | 0.059 log2 fold change | 0.030 log2 fold change | 0.057 log2 fold change | 0.871 | 0.512 | 0.261 | 0.494 | 0.574 | 0.415 | 0.814 | 0.766 |
| COc1cc2c(cc1Cc1cccc(Cl)c1F)c(=O)c(C(=O)O)cn2[C@H](CO)C(C)C [Elvitegravir (GS-9137, JTK-303)] | −0.001 log2 fold change | −0.040 log2 fold change | −0.344 log2 fold change | −0.737 log2 fold change | −0.010 log2 fold change | 0.092 log2 fold change | −0.126 log2 fold change | −0.135 log2 fold change | −0.047 log2 fold change | −0.069 log2 fold change | −0.094 log2 fold change | −0.090 log2 fold change | −0.412 | −0.598 | −0.821 | −0.782 | −0.001 | −0.095 | −0.823 | −1.760 |
| CCCCCCCCCCCC1=C(O)C(=O)C=C(O)C1=O [Embelin] | −0.323 log2 fold change | −0.723 log2 fold change | −0.325 log2 fold change | −0.720 log2 fold change | −0.034 log2 fold change | −0.122 log2 fold change | −0.111 log2 fold change | −0.119 log2 fold change | −0.015 log2 fold change | −0.082 log2 fold change | −0.055 log2 fold change | −0.094 log2 fold change | −0.129 | −0.712 | −0.482 | −0.819 |  |  |  |  |
| OC[C@H]1O[C@@H](c2ccc(Cl)c(Cc3ccc(O[C@H]4CCOC4)cc3)c2)[C@H](O)[C@@H](O)[C@@H]1O [Empagliflozin (BI 10773)] | −0.296 log2 fold change | −0.075 log2 fold change | −0.192 log2 fold change | −0.134 log2 fold change | −0.051 log2 fold change | −0.055 log2 fold change | −0.103 log2 fold change | −0.022 log2 fold change | −0.006 log2 fold change | −0.034 log2 fold change | −0.009 log2 fold change | 0.017 log2 fold change | −0.052 | −0.294 | −0.081 | 0.144 | −0.707 | −0.178 | −0.458 | −0.320 |
| C[C@H](N[C@@H](CCc1ccccc1)C(=O)O)C(=O)N1CCC[C@H]1C(=O)O.O.O [Enalaprilat Dihydrate] | −0.190 log2 fold change | −0.124 log2 fold change | −0.331 log2 fold change | −0.979 log2 fold change | −0.001 log2 fold change | 0.111 log2 fold change | −0.095 log2 fold change | −0.281 log2 fold change | 0.003 log2 fold change | −0.003 log2 fold change | −0.022 log2 fold change | −0.157 log2 fold change | 0.027 | −0.030 | −0.195 | −1.364 | −0.454 | −0.296 | −0.791 | −2.338 |
